The results in this text go back to US20100184708A1, “USE OF GLY-PRO-GLU-OH (GPE) AS A THERAPEUTIC AGENT” (priority 2007, published 2010).

The test system of one data set is CEM-SS cells. Kind of data set: Cytotoxicity in the HIV-1 assay (MTS cell viability). As to conditions: peptide 10 micrograms per ml, MTS.
The test system of the next data set is HIV-1IIIB. Kind of data set: HIV-1 antiviral assay (CPE reduction). It counts as cell-based. The conditions noted are these: peptide 10 micrograms per ml; 6 days post-infection; MTS.
Another data set has as its system Pseudomonas aeruginosa. The data set is classed as cell-based. The conditions noted are these: 5 micrograms per ml.
A short description of data set [1]: Cytotoxicity in the HIV-1 assay (MTS cell viability). The conditions noted are these: human, CEM-SS cells.
A short description of data set [2]: Cytotoxicity in the HBV assay (dye uptake cell viability). The data set is classed as cell-based. The conditions noted are these: human, HepG2-2.2.15 cells, peptide 10 micrograms per ml, % cell control. On the procedure:
HepG2-2.2.15 cells were plated in 96-well microtiter plates. After 16-24 hours the confluent monolayer of HepG2-2.2.15 cells was washed and the medium was replaced with complete medium containing test peptide—10 micrograms per ml—in duplicate. Lamivudine (3TC) was used as the positive control, while media alone was added to the cells as a negative control (virus control). Three days later the culture medium was replaced with fresh medium containing the peptide. Six days following the initial administration of the peptide, the cell culture supernatants was collected, treated with pronase and DNAse and then used in a real-time quantitative TaqMan PCR assay. The PCR-amplified HBV DNA was detected in real-time by monitoring increases in fluorescence signals that result from the exonucleolytic degradation of a quenched fluorescence probe molecule that hybridizes to the mplified HBV DNA. For each PCR amplification, a standard curve was simultaneously generated using dilutions of purified HBV DNA. Antiviral activity was calculated from the reduction in HBV DNA levels (% virus control). A novel dye uptake assay was then employed to measure cell viability, which is used to calculate toxicity (% cell control).

Another data set deals with Streptococcus pneumoniae. The data set is classed as cell-based. As to conditions: 5 micrograms per ml.
A further data set deals with MRSA. As to conditions: 5 micrograms per ml.
A short description of data set [3]: Cytotoxicity testing in MRC-5 cells. It counts as cell-based, human. As to conditions: human, 6 days incubation, CellTiter 96, read-out: % Cell viability.
In a further data set the test system is MRC-5 cells. Nature of the data set: Cytotoxicity testing in MRC-5 cells. It counts as cell-based, human. The conditions noted are these: 6 days incubation, CellTiter 96.

For `Cc1cn([C@H]2C[C@H](N=[N+]=[N-])[C@@H](CO)O2)c(=O)[nH]c1=O` [AZT, reference compound], in the data set with CEM-SS cells, the “% Cell viability” value was determined as 97%. Further, the “% CPE reduction in HIV-1 infected CEM-SS cells” value in the data set on HIV-1IIIB came to 99%.
For `NCC(=O)N1CCC[C@H]1C(=O)N[C@@H](CCC(=O)O)C(=O)O` [IGF-I (1-3), Gly-Pro-Glu-OH], the “% inhibition” value in the data set with Pseudomonas aeruginosa, in the data set on Streptococcus pneumoniae and with MRSA was 0.0% throughout. Moreover, the viability (as a rule, a read-out of living cells in per cent, often relative to untreated cells) at 10 micrograms per ml in [1] was found to be 100%. Moreover, in data set [2], the viability at 144 h, 10 micrograms per ml was determined as 98.2%. Besides, the viability at 144 h in [3] came out at 100%.
On to `Nc1nc(O)c2ncn(COC(CO)CO)c2n1` [Ganciclovir, reference compound], for which, in the data set on MRC-5 cells, the “% Cell viability” value is reported as 100%.
